These results are taken from ChEMBL document CHEMBL3507680, “University of Dundee, Gates Library screen for HepG2 cell viability”.

The series can be described thus: Human HepG2 cell viability assay in 384 well format. It is filed as toxicity, cell-based. Further details: dose 125 nL, time 70.5 hour; cytotoxicity at 70.5 h: concentration not given beside the values. The following applies: HepG2 cells, read-out: Inhibition.
Consider `CN(C(=O)Nc1ccccn1)C1CCCN(c2ccccc2)C1=O` (stereo not given), for which the cytotoxicity at 70.5 h came to 3.77%.
As to `CCN(CCCNc1ncnc2cc(F)c(F)cc12)S(C)(=O)=O`, the cytotoxicity at 70.5 h was -1.36%.
The figure for `N#Cc1cnc(NCCCN2C(=O)COc3ccccc32)c(Cl)c1` is 2.01%; for `COc1c(NC(=O)C(C)CCOc2ccccc2)c(C)nn1C` (stereo not given) it is 7.42%; for `Cc1nn(C)c(Cl)c1C1CCCN1c1ncnc2[nH]ccc12` (stereo not given) it is 12.9%.
On to `C1CCCN(c2nc(C3CC3)no2)CC1`, for which the cytotoxicity at 70.5 h came out at 1.49%.
The result for `CC(C)c1nsc(N2CCn3c(nnc3C(F)(F)F)C2)n1` reads 4.03%; that for `Cc1ccc(NC(=O)N(CCO)CCO)c(OCc2ccccc2)c1`, 10.5%.
The result for `Cc1nnc(Cn2cc(I)cc(C)c2=O)o1` reads 3.35%.
On to `CN1C(=O)CCN(C(=O)C2CCCCC2)c2ccccc21`, for which the cytotoxicity at 70.5 h was 9.73%.
`COc1ccc2c(ccn2CC(=O)N2CCCC2c2cnn(C)c2)c1` (stereo not given): the cytotoxicity at 70.5 h turned out to be 0.452%.
The result for `N#Cc1c(Cl)nsc1NCCCN1C(=O)COc2ccccc21` reads 8.75%.
For `C1CCC(N2CCCN(c3nc(C4CC4)no3)CC2)C1`, the cytotoxicity at 70.5 h is 0.93%.
The figure for `C1CN(c2nc(C3CC3)no2)CCN(C2CCOCC2)C1` is -0.117%; for `CCCNC(=O)C(C)Nc1cccc(Oc2ccc(C#N)cn2)c1` (stereo not given) it is 24.3%; for `CNS(=O)(=O)CCCN1CCCN(Cc2ccccc2)CC1C` (stereo not given) it is 14.3%.
The result for `COC(=O)CCCNC(=O)Nc1ccccc1OC` reads 12.5%; that for `Cc1ccc(C)c(CS(=O)(=O)CC(=O)NC(C)c2ccc(F)cc2F)c1` (stereo not given), 8.01%; that for `Cc1ccc(C)c(CS(=O)(=O)CC(=O)Nc2ccc(F)cc2F)c1`, -7.2%.
Take `O=C(CNC(=O)c1cnc2ccccc2c1O)NCCCn1ccnc1`: the cytotoxicity at 70.5 h was -16.5%.
Turning to `O=C(CCCNC(=O)Nc1ccc(F)cc1F)Nc1cn[nH]c1`, the cytotoxicity at 70.5 h is -5.08%.
With `CN(CC(=O)NC(Cc1ccccc1)C1CCCC1)S(C)(=O)=O` (stereo not given), the cytotoxicity at 70.5 h is -3.31%.
With `COc1ccccc1NC(=O)NCCCC(=O)Nc1cn[nH]c1`, the cytotoxicity at 70.5 h is 13.3%.
The result for `COc1cc(C(C#N)NC(=O)CC2=CCCCC2)cc(OC)c1OC` (stereo not given) reads -5.49%.
The result for `Cc1n[nH]cc1CNC1(c2ccc(F)cc2)CCCC1` reads -7.33%; that for `Cc1n[nH]cc1CNC1(Cc2ccc(Br)cc2)CCCCC1`, -1.97%; that for `CCn1nc(C)cc1C(=O)N1CCOc2ccc(OC)cc21`, -4.62%.
The figure for `CNS(=O)(=O)c1csc(C(=O)NCc2sccc2C)c1` is -4.77%; for `CCCc1cc(NC(=O)c2cccc(N3CCCNC3=O)c2)n[nH]1` it is -6.61%; for `CNS(=O)(=O)c1csc(C(=O)N(C)Cc2ccccc2C)c1` it is 0.0278%.
For `CC1CCN(CC(O)CNc2ccccn2)CC1` (stereo not given), the cytotoxicity at 70.5 h was -6.21%.
The figure for `CC1CCN(CC(O)CNc2ccc(Cl)cn2)CC1` (stereo not given) is -1.66%; for `OC(CNc1ccc(Cl)cn1)CN1CCOCC1` (stereo not given) it is 2.86%; for `COc1ccc(C(C#N)NC(=O)Cc2ccc(F)c(F)c2)c(OC)c1` (stereo not given) it is -3.6%.
The figure for `CCn1nc(C(C)C)cc1C(=O)N1CCOc2ccc(OC)cc21` is -5.2%; for `CC(C)Cc1nc(CS(=O)(=O)c2ccccc2)no1` it is -2.63%; for `Cc1nc(CN2CCC23CCN(Cc2ccoc2)CC3)cs1` it is -6.82%.
The figure for `Cc1nc(CN2CCC23CCN(Cc2ccco2)CC3)cs1` is -5.68%; for `Cc1nc(CN2CCC3(C2)CN(Cc2ccco2)C3)cs1` it is -3.68%.
Take `Cc1ccc(CNCC2Cn3nncc3CO2)s1` (stereo not given): the cytotoxicity at 70.5 h was -4.83%.
With `COCC(=O)N1CC(C(=O)NCC2CC2)C2(CCOCC2)C1` (stereo not given), the cytotoxicity at 70.5 h is -3.19%.
The result for `Cc1nnc([C@@]23CCO[C@@H]2CCN(S(=O)(=O)c2ccccc2)C3)o1` reads -7.57%; that for `O=C1CC[C@@H]2[C@@H](CCN2S(=O)(=O)C2CC2)N1CC1CC1`, 18.2%.
The result for `CCC(=O)N1CCC2(C=C(C(=O)N(C)C)c3ccccc32)CC1` reads 14%; that for `CCC(=O)N1CCC2(C=C(C(=O)N3CCCC3)c3ccccc32)CC1`, 8.56%; that for `COCCN1C(=O)CC[C@@H]2[C@H]1CCN2S(=O)(=O)c1cccs1`, 20.8%.
The result for `Cc1noc([C@]23COC[C@H]2CN(C(=O)COC2CCCC2)C3)n1` reads -5.12%; that for `Cc1noc([C@]23COC[C@H]2CN(C(=O)N2CCCC2)C3)n1`, -6.89%; that for `O=C(NCC1CC2(CO1)CN(c1nncs1)C2)C1CCC1` (stereo not given), -3.65%.
In the case of `Cc1ccc(N2CCc3ncnc(N(C)C)c3CC2)nn1`, the cytotoxicity at 70.5 h is -6.25%.
Turning to `COCC1c2nnn(C)c2CCN1C(=O)COc1ccccc1C` (stereo not given), the cytotoxicity at 70.5 h was -4.54%.
The figure for `COC1COC2(CCN(C(=O)c3ccc4ccccc4c3)CC2)C1` (stereo not given) is -4.73%; for `COc1ncccc1CN1Cc2nccn2CC(CN2CCCC2)C1` (stereo not given) it is -2.53%; for `COc1ncccc1CN1Cc2nccn2CC(Cn2cccn2)C1` (stereo not given) it is -5.37%.
Regarding `Cc1cc(CN2CC[C@H]3C[C@H](c4nc(C5CC5)cs4)O[C@@H]3C2)no1`, the cytotoxicity at 70.5 h was -4.1%.
The figure for `COCCN1C(=O)CC[C@@H]2[C@@H]1CCN2S(=O)(=O)C1CC1` is -3.21%; for `CCS(=O)(=O)N1CC[C@@H]2[C@H]1CCC(=O)N2CCOC` it is -3.05%; for `CCOCC(=O)N1C[C@@H]2COC[C@]2(c2nc(C)no2)C1` it is -7.6%.
For the compound `Cc1cc(CN2CC[C@@H]3O[C@@H](c4nnc(C)o4)C[C@H]3C2)no1`, the cytotoxicity at 70.5 h is -3.3%.
Regarding `COc1cc(N2CC[C@@H]3OCCN(C)[C@H]3CC2)ncn1`, the cytotoxicity at 70.5 h is -5.78%.
Turning to `CN(C)C(=O)CN1CCc2ncnc(N(C)C)c2CC1`, the cytotoxicity at 70.5 h was -6.04%.
The result for `COCC1c2c(cnn2C)CCN1C(=O)c1cccn1C` (stereo not given) reads -6.36%; that for `O=C(NCC1CC2(CO1)CN(Cc1cccs1)C2)C1CCC1` (stereo not given), 19.9%.
The figure for `Cc1ccc(CN2Cc3nccn3CC(Cn3cccn3)C2)s1` (stereo not given) is -4.41%; for `CC(=O)N1CCO[C@@H]2CN(Cc3ccccc3Cl)C[C@@H]2C1` it is -5.68%.
Turning to `Cc1noc([C@]23COC[C@H]2CN(C(=O)CN(C)C)C3)n1`, the cytotoxicity at 70.5 h was -4.74%.
The figure for `CC(C)C(=O)N1CCCC2(C1)CN(c1nncs1)CCO2` (stereo not given) is -2.65%; for `Cn1ccc(CN2CCC3(CCCN3CC3CC3)CC2)n1` it is -6.07%; for `Cn1cc(CN2C[C@H]3CCC[C@@]3(COc3ccccn3)C2)cn1` it is -3.17%.
`CN(Cc1ccccn1)C(=O)[C@H]1CO[C@H]2CCN(CC3CC3)C[C@H]2C1`: the cytotoxicity at 70.5 h was -5.92%.
